Read-outs that look alike come from different tables or passages of the source.
Legend:
[1] = target: T1, FLT3 kinase (Homo sapiens, UniProt P36888); assay: In vitro enzymatic inhibitory activity (kinase reaction, FAM-labeled peptide); format: biochemical; details: in vitro enzymatic inhibition
T1 sequence (P36888 27-993): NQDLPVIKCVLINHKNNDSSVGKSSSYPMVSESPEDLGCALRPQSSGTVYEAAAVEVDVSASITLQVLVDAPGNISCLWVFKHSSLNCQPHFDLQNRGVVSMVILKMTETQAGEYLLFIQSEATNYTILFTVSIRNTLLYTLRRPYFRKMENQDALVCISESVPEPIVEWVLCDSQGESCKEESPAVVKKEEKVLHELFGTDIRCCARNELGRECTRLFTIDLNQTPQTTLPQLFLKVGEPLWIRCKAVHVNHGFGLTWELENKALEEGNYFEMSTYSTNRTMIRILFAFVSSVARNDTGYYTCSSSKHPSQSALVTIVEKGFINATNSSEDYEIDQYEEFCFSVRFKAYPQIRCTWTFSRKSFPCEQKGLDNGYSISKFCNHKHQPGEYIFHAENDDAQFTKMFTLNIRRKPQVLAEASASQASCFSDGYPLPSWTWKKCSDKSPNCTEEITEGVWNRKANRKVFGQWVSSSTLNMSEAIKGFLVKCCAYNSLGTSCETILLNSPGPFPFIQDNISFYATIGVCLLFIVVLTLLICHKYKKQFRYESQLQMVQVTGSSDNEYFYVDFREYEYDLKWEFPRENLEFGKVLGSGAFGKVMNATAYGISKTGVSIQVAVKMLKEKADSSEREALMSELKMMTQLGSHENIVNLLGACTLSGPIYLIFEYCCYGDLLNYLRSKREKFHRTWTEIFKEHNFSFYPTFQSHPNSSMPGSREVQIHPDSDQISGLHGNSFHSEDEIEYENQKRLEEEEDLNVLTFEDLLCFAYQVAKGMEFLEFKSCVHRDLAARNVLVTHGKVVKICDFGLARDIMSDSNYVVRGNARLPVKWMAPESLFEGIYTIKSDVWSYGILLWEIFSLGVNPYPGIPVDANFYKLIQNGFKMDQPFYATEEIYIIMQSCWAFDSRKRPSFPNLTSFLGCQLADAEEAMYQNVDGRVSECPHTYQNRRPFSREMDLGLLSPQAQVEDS

[2] = Evaluation of pharmacokinetic activity in male SD rats (iv and oral); format: in vivo; details: for Vd: read-out: Vss; for bioavailability: po 5 mg/kg vs iv 1 or 2 mg/kg
Protocol: 1. Preparation of the Test Compound Solutions
The test compound solutions were prepared using appropriate amounts of 5% DMSO, 5% KolliphorHS15 and 90% Saline to dissolve each compound completely.
140-190 g male SD rats were randomly divided into two groups. One group was administered through intravenous drug delivery with the dosage of 1.0 or 2.0 mg/kg, and the other group was administered by oral with the dosage of 5.0 mg/kg. For intravenous administration, caudal vein blood samples at the time points of 0.0833, 0.25, 0.5, 1.0, 2.0, 4.0, 6.0, 8.0 and 24 h were collected after drug administration (the time point of drug administration was set as 0 h); and for oral administration, caudal vein blood samples at the time points of 0.25, 0.5, 1.0, 2.0, 4.0, 6.0, 8.0 and 24 h were collected after drug administration (the time point of drug administration was set as 0 h). Appropriate range of standard curve was established according to the sample concentration, and the test compound concentrations in plasma sample were measured by LC-MS/MS analysis. Pharmacokinetic parameters were calculated by non-compartmental method using WinNonLin 6.3 software based on drug concentration-time curves.

[3] = tested on: MV-4-11 cell; assay: In vitro cytology inhibitory activity (MV-4-11 cell proliferation, cell viability luminescence); format: cell-based; details: Homo sapiens, MV4-11; MV-4-11 cells, 72 h incubation
Protocol: Cell assay condition was shown below:
a. A complete medium was prepared and mixed well. b. Cell was recovered, and cell lines of between about two generations in good condition of growth were selected. c. The cell culture flasks were removed from the incubator, and the labeled cell name on the bottles, culture medium type and cell algebra were checked. d. The cell suspension was pipette into a centrifuge tube, and centrifuged at 800-1000 rpm for 3-5 minutes. e. Cell supernatant of the centrifuge tube was aspirated. f. Appropriate volume of culture medium was added into the centrifuge tube, and the cells were resuspended by gentle pipetting uniform. g. Vi-Cell XR cytometer was used for count. h. The cell suspension was adjusted to the appropriate concentration. i. The cell suspension was added to the bottom wall of the white 96-well plate, 100 microliters/well. Cells name, kind of board density and date were detailed labeled, and the culture plate was placed in CO2 incubator overnight.
2. Preparation and Addition of the Test Compounds
i) Preparation of test compound plates by diluting to 10 concentrations with DMSO: first, the test compound stock solution was prepared by dissolving a weighed compound in DMSO to a concentration of 10 mM, and then diluted to the concentration of 4 mM, which was then diluted to the concentration of 0.4 mM used as the highest concentration for testing with DMSO. The highest concentration was sequentially followed by 3-fold dilution for a total of 10 concentrations. Staurosporine was the positive control drug. ii) Addition of test compounds: a. 0.5 μL of test compound prepared above in compound plate was added into the cell culture plate that had been incubated overnight. Then the culture plate was incubated in an incubator at 37° C. for 72 hours.
3. Detection and Analysis
a. 72 hours after the compound treatment, cells was observed under an inverted microscope morphology, and cell growth state in DMSO control well was normal, there was no contamination. b. The cell culture plate was placed in equilibrium at room temperature for 30 minutes. c. The cell viability detection reagent at 100 μL/well was placed into culture plate. d. The mixture in culture plate was mixed two minutes in the vibration plate machine to induce cell lysis. e. 96-well plate was placed for 10 minutes at room temperature, making it stable luminescent signal. f. White base film was pasted on the bottom of the culture plate, and the plate was tested by using Flexstation3 (related to: light, integration time 500 ms). g. Experimental results were recorded and analyzed.

CC(C)(C)c1cc(NC(=O)Nc2ccc(C#Cc3ccc(OCCCN4CCOCC4)cc3F)cc2)no1 [Example 4, 1-(5-(tert-Butyl)isoxazol-3-yl)-3-(4-((2-fluoro-4-(3-morpholinopropoxy)phenyl)ethynyl)phenyl) urea]
IC50 [1]: 39 nM
T1/2 ([2]; po, 5 mg/kg): 5.86 h
AUC(0-inf) ([2]; rat, plasma, iv, 2 mg/kg): 6940 ng·h/mL
AUC(0-t) ([2]; rat, plasma, iv, 2 mg/kg): 6570 ng·h/mL
Tmax ([2]; rat, plasma, iv, 2 mg/kg): 0.08 h
half-life ([2]; rat, plasma, iv, 2 mg/kg): 6.23 h
Cmax ([2]; rat, plasma, iv, 2 mg/kg, read-out: Cmax): 2690 ng/mL
Vd ([2]; rat, plasma, iv, 2 mg/kg): 1.83 L/kg
bioavailability ([2]; rat, plasma): 69.3%
AUC(0-inf) ([2]; rat, plasma, po, 5 mg/kg): 12000 ng·h/mL
AUC(0-t) ([2]; rat, plasma, po, 5 mg/kg): 11300 ng·h/mL
Tmax ([2]; rat, plasma, po, 5 mg/kg): 2.67 h
Cmax ([2]; rat, plasma, po, 5 mg/kg, read-out: Cmax): 1370 ng/mL
IC50 [3]: 5.2 nM

CC(C)(C)c1cc(NC(=O)Nc2ccc(C#Cc3cnn4ccc(OCCCN5CCOCC5)nc34)cc2)no1 [Example 6, 1-(5-(tert-Butyl)isoxazol-3-yl)-3-(4-((5-(3-morpholinopropoxy)pyrazolo[1,5-a]pyrimidin-3-yl)ethynyl)phenyl)urea]
IC50 [1]: 94 nM
IC50 [3]: 3.1 nM

CC(C)(C)c1cc(NC(=O)Nc2ccc(C#Cc3ccc(OCCCN4CCC5(COC5)C4)cc3F)cc2)no1 [Example 8, 1-(4-((4-(3-(2-Oxa-6-azaspiro[3.4]octan-6-yl)propoxy)-2-fluorophenyl)ethynyl)phenyl)-3-(5-(tert-butyl)isoxazol-3-yl)urea]
IC50 [1]: 61 nM
IC50 [3]: 3.4 nM

CN1CCN(CCOc2ccc(C#Cc3ccc(NC(=O)Nc4cc(C(C)(C)C)on4)cc3)cc2)CC1 [Example 12, 1-(5-(tert-Butyl)isoxazol-3-yl)-3-(4-((4-(2-(4-methylpiperazin-1-yl)ethoxy)phenyl)ethynyl)phenyl)urea]
IC50 [1]: 28 nM
IC50 [3]: 1.6 nM

CN1CCN(CCCOc2ccc(C#Cc3ccc(NC(=O)Nc4cc(C(C)(C)C)on4)cc3)cc2)CC1 [Example 13, 1-(5-(tert-Butyl)isoxazol-3-yl)-3-(4-((4-(3-(4-methylpiperazin-1-yl)propoxy)phenyl)ethynyl)phenyl)urea]
IC50 [1]: 23 nM
IC50 [3]: 2.4 nM

CN(C)C1CCN(CCOc2ccc(C#Cc3ccc(NC(=O)Nc4cc(C(C)(C)C)on4)cc3)cc2)CC1 [Example 14, 1-(5-(tert-Butyl)isoxazol-3-yl)-3-(4-((4-(2-(4-(dimethylamino)piperidin-1-yl)ethoxy)phenyl)ethynyl)phenyl)urea]
IC50 [1]: 72 nM
IC50 [3]: 11.4 nM

CC(C)(C)c1cc(NC(=O)Nc2ccc(C#Cc3cnn4c(OCCCN5CCOCC5)ccnc34)cc2)no1 [Example 15, 1-(5-(tert-Butyl)isoxazol-3-yl)-3-(4-((7-(3-morpholinopropoxy)pyrazolo[1,5-a]pyrimidin-3-yl)ethynyl)phenyl)urea]
IC50 [1]: 102 nM

COc1cc(C#Cc2ccc(NC(=O)Nc3cc(C(C)(C)C)on3)cc2)ccc1OCCCN1CCOCC1 [Example 20, 1-(5-(tert-Butyl)isoxazol-3-yl)-3-(4-((3-methoxy-4-(3-morpholinopropoxy)phenyl)ethynyl)phenyl)urea]
IC50 [1]: 110 nM

CC(C)(C)c1cc(NC(=O)Nc2ccc(C#Cc3ccc(OCCN4C[C@@H]5OCCO[C@@H]5C4)cc3)cc2)no1 [Example 24, 1-(5-(tert-Butyl)isoxazol-3-yl)-3-(4-((4-(2-((4aR,7aS)-tetrahydro-2H-[1,4]dioxino[2,3-c]pyrro 1-6(3H)-yl)ethoxy)phenyl)ethynyl)phenyl)urea]
IC50 [1]: 160 nM
AUClast ([2]; po, 5 mg/kg): 6770 ng·h/mL
Cmax ([2]; po, 5 mg/kg): 862 ng/mL
T1/2 ([2]; po, 5 mg/kg): 3.9 h
AUC(0-inf) ([2]; rat, plasma, iv, 1 mg/kg): 2160 ng·h/mL
AUC(0-t) ([2]; rat, plasma, iv, 1 mg/kg): 2130 ng·h/mL
Tmax ([2]; rat, plasma, iv, 1 mg/kg): 0.083 h
half-life ([2]; rat, plasma, iv, 1 mg/kg): 4.51 h
Cmax ([2]; rat, plasma, iv, 1 mg/kg, read-out: Cmax): 1340 ng/mL
Vd ([2]; rat, plasma, iv, 1 mg/kg): 1.69 L/kg
bioavailability ([2]; rat, plasma): 63.6%
AUC(0-inf) ([2]; rat, plasma, po, 5 mg/kg): 6870 ng·h/mL
Tmax ([2]; rat, plasma, po, 5 mg/kg): 4 h

CC(C)(C)c1cc(NC(=O)Nc2ccc(C#Cc3ccc(OCCN4CCOCC4)cc3)cc2)no1 [Example 25, 1-(5-(tert-Butyl)isoxazol-3-yl)-3-(4-((4-(2-morpholinoethoxy)phenyl)ethynyl)phenyl)urea]
IC50 [1]: 84 nM

From patent publication US10065934B2, “Substituted urea derivatives and pharmaceutical uses thereof” (SUNSHINE LAKE PHARMA CO., LTD., priority 2014, dated 2018)
